Laboratory results from patent US20210253562A1, “ACYLSUFONAMIDE COMPOUNDS USEFUL AS EP3 RECEPTOR ANTAGONISTS” (Janssen Pharmaceutica NV, priority 2018, published 2021).

Columns and labels:
[1] = molecular target: T1, EP3 membrane (EP3 receptor) (Homo sapiens, UniProt P43115); assay: [3H]-PGE2 binding; EP3 competition binding (SPA)
T1 construct: purchased Millipore HTS092M
T1 sequence (P43115 1-390): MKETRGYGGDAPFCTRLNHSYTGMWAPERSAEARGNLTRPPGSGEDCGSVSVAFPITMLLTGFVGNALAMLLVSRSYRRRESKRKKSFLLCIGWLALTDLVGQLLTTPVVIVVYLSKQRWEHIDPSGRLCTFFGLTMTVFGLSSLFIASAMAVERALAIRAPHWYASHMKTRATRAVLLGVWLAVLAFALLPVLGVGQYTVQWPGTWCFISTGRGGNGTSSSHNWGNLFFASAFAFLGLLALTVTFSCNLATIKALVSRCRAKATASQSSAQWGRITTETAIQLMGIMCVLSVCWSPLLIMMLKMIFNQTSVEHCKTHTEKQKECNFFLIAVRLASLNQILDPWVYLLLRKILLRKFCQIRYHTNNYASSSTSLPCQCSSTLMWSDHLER
In short: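 Ki derived from one-site nonlinear regression of scintillation proximity counts after 2 h room-temperature equilibration. Serially diluted (1:3) compounds competed against [3H]-PGE2 (2 nM) for EP3 receptor membranes (2 μg/well) in pH 7.4 Tris buffer with 10 mM MgCl2, 1 mM EDTA, 0.1% DMSO.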

[2] = molecular target: T2, CHO cells over-expressing the EP3 receptor (Homo sapiens, UniProt P43115); assay: CHO cell cAMP assay; EP3 cAMP antagonist dose response (sulprostone reference), HTRF; type: cell-based; settings: sulprostone 700 nM (EC80) and FSK 2 μM (EC70); read-out: CHO_cAMP IC50
T2 construct: expressed in transfected cells; host or cells: CHO cells
T2 sequence (P43115 1-390): T1 sequence (P43115 1-390)
In short: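 EP3-overexpressing CHO cells pre-incubated with test compound, then stimulated 30 min at 37 °C with FSK (2 μM, EC70) plus sulprostone (700 nM, EC80); antagonism seen as restored cAMP. cAMP measured by HTRF 665/615 ratio, converted via on-plate standard curve. IC50 from Hill fit of 11-point dosing.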

male Sprague Dawley rats = assay: IV infused EP3 antagonists on circulating insulin and glucose in the sulprostone infusion IVGTT model; type: in vivo, rat; settings: SD rats, 2.1 mg/kg bolus followed by 3.09 mg/kg/hour infusion
Excerpt: Biological Example 3: IV Infused EP3 Antagonists on Circulating Insulin and Glucose in the Sulprostone Infusion IVGTT Model
Jugular vein and carotid artery cannulated male Sprague Dawley rats (˜250 g, available from Charles River) were housed one rat per suspended cage in a temperature-controlled room with 12-hour light/dark cycle. The rats were allowed ad libitum access to water and maintained on a regular diet. Animals were acclimated for minimum 5 days prior to the start of the experiment. Experimental procedures were carried out in accordance with institutional standards for animal care and were approved by the institute's animal care and use committee.
A blood sample for insulin and blood chemistry was collected at 20 min (t=−20) prior to the start of dosing with sulprostone and/or test compound (EP3 antagonist). […]
Blood samples from all animals were collected into Heparin treated tubes. Background was measured via a glucometer at the 0 and 2 min time points to ensure that the animal received the glucose bolus. Plasma insulin was measured via a Meso Scale Discovery metabolic assay (available from Meso Scale). Plasma glucose, free fatty acid (FFA), triglycerides, cholesterol and ketones were measured on an OLYMPUS AU400E chemistry analyzer. Observations on animal health were recorded throughout the procedure. […]

O=C(NC/C=C1\CCCc2cnn(Cc3ccc(Cl)cc3Cl)c21)NS(=O)(=O)c1ccc(Cl)cc1 [Compound #4, (E)-4-chloro-N-((2-(1-(2,4-dichlorobenzyl)-1,4,5,6-tetrahydro-7H-indazol-7-ylidene)ethyl)carbamoyl)benzenesulfonamide]
Ki [1]: 4 nM
IC50 [2]: 12 nM
suppression of glucose stimulated insulin secretion (GSIS) by sulprostone (male Sprague Dawley rats): reverse suppression of glucose stimulated insulin secretion (GSIS) by sulprostone
